Test results: ChEMBL document CHEMBL5329158 (RSC Med Chem, 2023)

Tested on: Leishmania infantum
Test: Antileishmanial activity against Leishmania infantum MHOM/BR/1972/LD amastigotes infected in mouse Peritoneal macrophage cells assessed as inhibition of parasite growth incubated for 96 hrs by light microscopic analysis
Format: functional, organism-based
Conditions: Leishmania infantum, MHOM/BR/1972/LD, Peritoneal macrophage, 96 h; read-out: IC50; call rule not given here

| SMILES | IC50 [µM] |
| --- | --- |
| C=CCc1cc(OC)c(O)c(Oc2ccc(CN3CCOCC3)cc2OC)c1 | > 50 |
| CCCc1ccc(Oc2cc(CCC)cc(OC)c2OCc2ccc(OC)cc2)c(OC)c1 | > 50 |
| C=CCc1ccc(Oc2cc(CC=C)cc(OC)c2OCC(=O)N2CCOCC2)c(OC)c1 | > 50 |
| C=CCc1ccc(Oc2cc(CCC)cc(OC)c2OCc2ccc(OC)cc2)c(OC)c1 | > 50 |
| C=CCc1cc(OC)c(OC)c(Oc2ccccc2OC)c1 | > 50 |
| C=CCc1cc(OC)cc(Oc2ccc(CC=C)cc2OC)c1 | > 50 |
| C=CCc1ccc(Oc2cccc(OC)c2O)c(OC)c1 | > 50 |
| C=CCc1ccc(Oc2cccc(OC)c2OC(C)=O)c(OC)c1 | > 50 |
| C=CCc1cc(OC)c(OCc2ccc(OC)cc2)c(Oc2ccc(CN3CCCC3)cc2OC)c1 | > 50 |
| C=CCc1ccc(Oc2cccc(OC)c2OC)c(OC)c1 | > 50 |
| C=CCc1cc(OC)c(O)c(Oc2ccc(CCC)cc2OC)c1 | > 50 |
| C=CCc1ccc(Oc2cc(CC=C)cc(OC)c2OCc2ccc(OC)cc2)c(OC)c1 | > 50 |
| C=CCc1cc(OC)c(OCc2ccc(OC)cc2)c(Oc2ccc(CCC)cc2OC)c1 | > 50 |
| C=CCc1cc(OC)c(O)c(Oc2ccc(CN3CCCC3)cc2OC)c1 | > 50 |
| C=CCc1cc(OC)c(O)c(Oc2ccccc2OC)c1 | > 50 |
| C=CCc1ccc(Oc2cc(CC=C)cc(OC)c2OCOC)c(OC)c1 | > 50 |
| C=CCc1cc(OC)c(OC)c(Oc2ccc(CCC)cc2OC)c1 | > 50 |
| C=CCc1ccc(Oc2cc(CCC)cc(OC)c2O)c(OC)c1 | > 50 |

Same assay, conditions: peritoneal macrophage

| SMILES | IC50 |
| --- | --- |
| CCCc1ccc(OCc2ccc(OC)cc2)c(Oc2ccc(CN3CCOCC3)cc2OC)c1 | Not Active |
| C=CCc1ccc(Oc2cc(CC=C)cc(OC)c2O)cc1 | Not Active |
| C=CCc1ccc(Oc2cc(CC=C)ccc2OCc2ccc(OC)cc2)c(OC)c1 | Not Active |
| C=CCc1ccc(Oc2cccc(OC)c2OCc2ccc(OC)cc2)c(OC)c1 | Not Active |
| C=CCc1ccc(Oc2cc(CC=C)cc(OC)c2OCc2ccc(OC)cc2)cc1 | Not Active |
| C=CCc1ccc(O)c(Oc2ccc(CC=C)cc2OC)c1 | Not Active |

Tested on: not listed separately
Test: Selectivity index, ratio of CC50 for cytotoxicity against mouse NCTC clone 929 cells assessed as inhibition of cell growth to IC50 for antileishmanial activity against Leishmania infantum MHOM/BR/1972/LD amastigotes infected in mouse Peritoneal macrophage cells assessed as inhibition of parasite growth
Format: toxicity, cell-based
Conditions: read-out: Ratio CC50/IC50

| SMILES | selectivity ratio |
| --- | --- |
| C=CCc1ccc(Oc2cc(CC=C)cc(OC)c2OCCN2CCOCC2)c(OC)c1 | 6.6 |
| COc1ccc(COc2c(OC)cc(CN3CCOCC3)cc2Oc2ccc(CN3CCOCC3)cc2OC)cc1 | 2.7 |
| CCCc1cc(OC)c(OCc2ccc(OC)cc2)c(Oc2ccc(CN3CCOCC3)cc2OC)c1 | 9.7 |
| CCCc1cc(OC)c(OCc2ccc(OC)cc2)c(Oc2ccc(CN3CCCCC3)cc2OC)c1 | 3.9 |
| CCCc1ccc(Oc2cc(CN3CCOCC3)cc(OC)c2OCc2cc(OC)c(OC)c(OC)c2)c(OC)c1 | > 7.6 |
| CCCc1ccc(Oc2cc(CN3CCCCC3)cc(OC)c2OCc2ccc(OC)cc2)cc1 | 7.6 |
| C=CCc1cc(OC)c(OCc2ccc(OC)cc2)c(Oc2ccccc2OC)c1 | > 8.3 |
| C=CCc1cc(OC)c(OC(C)=O)c(Oc2ccccc2OC)c1 | > 6.1 |
| CCCc1ccc(Oc2cc(CN3CCOCC3)cc(OC)c2OCc2ccc(OC)cc2)cc1 | > 13.1 |
| C=CCc1ccc(Oc2cc(CC=C)cc(OC)c2OCC(=O)N2CCCC2)c(OC)c1 | 2.6 |
| C=CCc1cc(OC)c(OCc2ccc(OC)cc2)c(Oc2ccc(CN3CCOCC3)cc2OC)c1 | > 20.6 |
| CCCc1ccc(Oc2cc(CN3CCOCC3)cc(OC)c2OCc2ccc(C(F)(F)F)cc2)c(OC)c1 | > 15.1 |
| CCCc1ccc(Oc2cc(CN3CCOCC3)cc(OC)c2OCc2ccc(OC)cc2)c(OC)c1 | > 12.2 |
| C=CCc1ccc(Oc2cc(CC=C)cc(OC)c2OCCN2CCCC2)c(OC)c1 | 6 |
| CCCCCCCCCCCCCCCCOP(=O)([O-])OCC[N+](C)(C)C [MILTEFOSINE] | 18.4 |
